In patent US20250221936A1, “ENGINEERED HEMICHANNELS, ENGINEERED VESICLES, AND USES THEREOF” (VIRGINIA TECH INTELLECTUAL PROPERTIES, INC., priority 2018, published 2025):
Entries after “also recorded” stand apart in the source; their conditions may differ.

Columns and labels:
[1] = system: chronic, slow healing skin wounds; settings: diabetic foot ulcers and venous leg ulcers; cited from earlier work
[2] = system: Human umbilical vein endothelial cells (HUVECs); settings: cited from earlier work
[3] = system: human MGMT-deficient and TMZ-resistant GBM cells; settings: cited from earlier work
[4] = molecular target: T1, GST-Cx43 CT (Rattus norvegicus, UniProt P08050); test: EDC cross-linking of kinase reaction mixtures, Cx43 CT; type: binding; settings: 5, 10 and 25 μM
T1 construct: pGEX-6-P2 Cx43 CT amino acids 255-382; made in house; host or cells: E. coli BL21
Method: (§1) To characterize the interaction between the Cx43 CT substrate and peptides, the in vitro kinase assay was performed as above with modification and the constituents then subjected to a cross-linking reaction. The assay buffer used was 20 mM 3-(N-morpholino) propanesulfonic acid (MOPS), pH 7.2. All other reagents present in the kinase reaction were maintained as described above. The reaction was allowed to proceed at 37° C. for 15 minutes. Afterwards, the carbodiimide crosslinker 1-Ethyl-3-(3-dimethylaminopropyl) carbodiimide HCl (EDC) (Thermo, 22980) was added to each solution for a final concentration of 20 mM. The solution was allowed to cross-link for one hour at room temperature. The reaction was stopped by the addition of 4×LDS loading buffer, boiled for 5 minutes and subsequently separated by PAGE. The resulting gel was stained in Coomassie brilliant blue (Sigma, B0770) for two hours and destained in a solution of 4% methanol 7% acetic acid overnight. Gel bands were subsequently excised for mass spectrometric analysis. For the direct interaction between protein and peptides, PBS, pH 7.5 was used as the coupling buffer. The protein (50 μg/ml) and peptide (25 μM) were allowed to react at room temperature for one hour before EDAC was added to the reaction mixture. The reaction was Western blotted for Cx43, GST or NeutroAvidin. […]

[5] = molecular target: T2, PKC-ε (Homo sapiens, UniProt Q02156); test: EDC cross-linking and MS/MS, PKC-ε; type: binding
T2 construct: purchased Life 37717L
T2 sequence (Q02156 1-737): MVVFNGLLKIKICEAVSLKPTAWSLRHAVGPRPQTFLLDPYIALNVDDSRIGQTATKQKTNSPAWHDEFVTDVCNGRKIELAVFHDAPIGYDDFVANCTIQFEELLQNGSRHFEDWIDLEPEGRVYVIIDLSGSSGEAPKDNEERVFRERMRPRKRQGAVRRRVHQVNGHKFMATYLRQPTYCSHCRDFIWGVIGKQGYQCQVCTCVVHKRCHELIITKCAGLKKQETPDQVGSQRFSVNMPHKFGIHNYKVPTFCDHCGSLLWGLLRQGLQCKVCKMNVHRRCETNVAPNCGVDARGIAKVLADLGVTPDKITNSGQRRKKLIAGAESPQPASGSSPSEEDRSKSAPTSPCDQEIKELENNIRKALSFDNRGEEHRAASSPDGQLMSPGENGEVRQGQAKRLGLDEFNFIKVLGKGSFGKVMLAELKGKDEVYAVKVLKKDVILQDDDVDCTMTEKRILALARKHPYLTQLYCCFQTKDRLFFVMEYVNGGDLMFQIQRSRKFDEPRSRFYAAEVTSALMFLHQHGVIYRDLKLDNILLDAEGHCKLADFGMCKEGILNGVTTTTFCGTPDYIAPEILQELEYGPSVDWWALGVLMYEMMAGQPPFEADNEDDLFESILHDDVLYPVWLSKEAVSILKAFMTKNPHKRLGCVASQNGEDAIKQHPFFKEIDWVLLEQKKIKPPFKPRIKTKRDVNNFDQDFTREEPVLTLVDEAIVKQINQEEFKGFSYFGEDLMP
Method: as §1

[6] = system: Cx43-Hela cells; test: Cx43 and ZO-1 immunofluorescent labeling; type: cell-based; settings: 10 μM for 2, 4, 24, or 48 hours
Method: Given that the 10UM concentration of peptide was not toxic to cells, the inventors treated Cx43-Hela cells with 10 μM JM1 or JM2 for 2, 4, 24, or 48 hours followed by fixation and immunofluorescent labeling of Cx43 and ZO-1. Said peptides can be loaded into the provided EVs and can elicit results similar to those observed for naked peptide as follows. […] However, the most striking effects were on ZO-1 organization. In control cells ZO-1 localized to cell borders, often at sites of small, finger-like projections between the cells. Cytoplasmic ZO-1 was also notable. In JM-treated cells a strong contrast in the ratio of cell border to cytoplasmic ZO-1 was found, with relative levels at cell borders being increased over controls. […] There was also a noticeable increase in the number of cells per area of field, supporting the earlier observation that JM2 treated cells appeared to proliferate and survive at an increased rate.

[7] = molecular target: T3, Cx43 hemichannel (Homo sapiens, UniProt P17302); settings: 50 μM for 2 hrs; cited from earlier work
T3 construct: expressed in transfected cells; host or cells: HeLa (Cx43-HeLa)

[8] = system: Cx43-Hela cells; settings: cited from earlier work

T1 sequence (P08050 255-382): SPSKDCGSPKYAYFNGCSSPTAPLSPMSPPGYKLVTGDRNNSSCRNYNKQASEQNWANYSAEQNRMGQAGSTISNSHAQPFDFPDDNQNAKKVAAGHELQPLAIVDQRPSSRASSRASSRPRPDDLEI
T3 sequence (P17302 2-382 limits assumed): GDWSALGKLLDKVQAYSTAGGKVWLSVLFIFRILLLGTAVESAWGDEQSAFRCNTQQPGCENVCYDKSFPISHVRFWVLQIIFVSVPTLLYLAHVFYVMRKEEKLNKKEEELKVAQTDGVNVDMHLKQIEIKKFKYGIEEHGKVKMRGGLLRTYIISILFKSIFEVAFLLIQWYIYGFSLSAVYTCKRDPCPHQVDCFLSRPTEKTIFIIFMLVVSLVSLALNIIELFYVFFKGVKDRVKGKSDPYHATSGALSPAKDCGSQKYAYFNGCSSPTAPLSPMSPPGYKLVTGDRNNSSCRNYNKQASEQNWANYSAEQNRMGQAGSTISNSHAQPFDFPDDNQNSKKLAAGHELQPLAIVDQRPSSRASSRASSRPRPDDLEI

Row | Sequence | healing of skin wounds [1] | protection from oxidative stress ([2]; H2O2) | cellular injury ([2]; UW solution containing 100 μM) | IL-8 secretion and MHC II expression ([2]; UW solution supplemented with peptide) | TEER and IL-8 secretion post reperfusion ([2]; UW+ACT1 solution) | sensitivity to TMZ [3] | EDC cross-linking to Cx43 CT [4] | interaction with PKC-ε [5] | Cx43 and ZO-1 localization [6] | hemichannel activity [7] | Cx43 GJ labeling ([8]; 10 μM for 2, 6, and 24 hrs) | microtubule organization ([8]; 2 hr)
1 | RQPKIWFPNRRKPWKKRPRPDDLEI [alpha CT1] | high level of efficacy in promoting the healing of two types of chronic, slow healing skin wounds; also recorded: increased the healing rate of slow-healing skin wounds | significantly protects endothelial cells from H2O2 | significantly reduced cellular injury as compared to untreated controls | significant reduction in IL-8 secretion and MHC Class II expression | improved TEER and reduced IL-8 secretion | sensitized human MGMT-deficient and TMZ-resistant GBM cells to TMZ treatment | covalently linked by EDC to Cx43 CT in a concentration-dependent manner | no evidence for interaction between PKCE and alpha CT1 | – | – | – | –
2 | VFFKGVKDRVKGRSD [JM2] | – | – | – | – | – | – | – | – | greater cytoplasmic Cx43 was observed; also recorded: well defined cell-cell interfaces | significantly reduced hemichannel activity | displayed little GJ labeling; also recorded: GJ labeling began to return at 6 hrs, and appeared normal after 24 hrs | disruption of microtubule organization
